# Experimental data: patent publication US20250313552A1, “NICOTINATE ESTERS AND THERAPEUTIC METHODS OF USE THEREOF” (New Frontier Bio, Inc., priority 2024, published 2025)
# System: Keratinocytes
# Assay: NAD assay in keratinocytes (NAD+ increase)
# Type: cell-based
# Settings: 3 hours incubation with compound, normalized NAD, ratio vs PBS control
# Procedure: Keratinocytes were plated in 12-well tissue culture plates at a density of 200,000 cells per well. The wells contained 0.75 mL DMEM growth medium with 2% HI FBS and cells were incubated overnight at 37° C. at 5% CO2. The following day, cells were dosed with the desired concentration of each compound and incubated for 3 hours. Following the incubation period, cell monolayers were washed with 200 μL of PBS. Cells were then allowed to lift using 0.25% trypsin for 15 minutes. After lifting, cells were collected into a sterile 1.5 mL centrifuge tube containing 400 μL of DMEM with 2% HI FBS. The cell lysates then centrifuged at 500×g for 5 minutes. Following this, the supernatant was aspirated off of the cell pellet and cells were washed again in 200 μL of PBS and centrifuged at 500×g for 5 minutes. PBS was aspirated off of the cell pellet and 400 μL of cold extraction buffer was added. Each centrifuge tube was then vortexed for 10 seconds. The resulting samples were centrifuged at 13,000×g for 10 minutes at 4° C. to remove insoluble material. After centrifuging, 50 μL of each sample was used to determine in duplicates the total protein concentration by a BCA protein assay kit. The remaining samples were then deproteinized by centrifuging and filtering them through a 10 kDa cut-off spin filter at 13,000xg for 10 minutes at 4° C. Following deproteinization, the samples were loaded into a 96 well plate in duplicates. The amount loaded was dependent on their protein concentration to ensure a uniform protein content for each sample. The final volume in the well was brought up to 50 μL using the cell extraction buffer. 50 μL of each standard was added to the appropriate wells. 98 μL of cycling buffer and 2 μL of NAD cycling enzyme were added to each well and the wells were incubated at room temperature for 5 minutes. 10 μL of developer was added to each well and the plate was incubated at room temperature for one hour. The reaction was stopped by adding 10 μL of stop solution to each well. The absorbance of each well was measured at 450 nm using a plate reader. A standard curve was plotted and normalized NAD values were determined.
row,Compound,NAD+ increase ratio compared to PBS control
1,"CCCCCCCCCCCCCCCC(=O)OC[C@@H](O)[C@@H]1OC(=O)C(OC(=O)c2cccnc2)=C1OC(=O)c1cccnc1 [Compound 1, (S)-2-((R)-1-hydroxy-2-(palmitoyloxy)ethyl)-5-oxo-2,5-dihydrofuran-3,4-diyl dinicotinate]",8.19
2,"CCCCCCCCCCCCCCCC(=O)OC[C@H](O)[C@H]1OC(=O)C(OC(=O)c2cccnc2)=C1OC(=O)c1cccnc1 [Compound 14, (R)-2-((S)-1-hydroxy-2-(palmitoyloxy)ethyl)-5-oxo-2,5-dihydrofuran-3,4-diyl dinicotinate]",8.33
3,"O=C(CCC[P+](c1ccccc1)(c1ccccc1)c1ccccc1)NCCOC(=O)c1cccnc1 [Compound 9, (4-((2-(nicotinoyloxy)ethyl)amino)-4-oxobutyl)triphenylphosphonium]",1.67
4,"CCCCCCCCCCCCCCCC(=O)OC[C@H](OC(=O)c1cccnc1)[C@H]1OC(=O)C(OC(=O)c2cccnc2)=C1OC(=O)c1cccnc1 [Compound 4, (R)-2-((S)-1-(nicotinoyloxy)-2-(palmitoyloxy)ethyl)-5-oxo-2,5-dihydrofuran-3,4-diyl dinicotinate]",3.04
5,"NC(=O)c1ccc[n+]([C@@H]2O[C@H](COC(=O)CCCCC3CCSS3)[C@@H](OC(=O)CCCCC3CCSS3)[C@H]2OC(=O)CCCCC2CCSS2)c1 (stereo partly drawn) [Compound 12, 1-((2R,3R,4R,5R)-3,4-bis((5-(1,2-dithiolan-3-yl)pentanoyl)oxy)-5-(((5-(1,2-dithiolan-3-yl)pentanoyl)oxy)methyl)tetrahydrofuran-2-yl)-3-carbamoylpyridin-1-ium]",1.16
6,"O=C(/C=C/C=C/c1ccc2c(c1)OCO2)NCCOC(=O)c1cccnc1 [Compound 10, 2-((2E,4E)-5-(benzo[d][1,3]dioxol-5-yl)penta-2,4-dienamido)ethyl nicotinate]",1.57
7,"CCCCCCCCCCCCCCCC(=O)OC[C@@H](O)[C@H]1OC(=O)C(OC(=O)c2cccnc2)=C1OC(=O)c1cccnc1 [Compound 15, (R)-2-((R)-1-hydroxy-2-(palmitoyloxy)ethyl)-5-oxo-2,5-dihydrofuran-3,4-diyl dinicotinate]",1.84
8,"O=C(OCc1cc(=O)c(OC(=O)c2cccnc2)co1)c1cccnc1 [Compound 5, (5-(nicotinoyloxy)-4-oxo-4H-pyran-2-yl)methyl nicotinate]",1.51
9,"NC(=O)c1ccc[n+]([C@@H]2O[C@H](COC(=O)c3cccnc3)[C@@H](OC(=O)c3cccnc3)[C@H]2OC(=O)c2cccnc2)c1 [Compound 13, 1-((2R,3R,4R,5R)-3,4-bis(nicotinoyloxy)-5 ((nicotinoyloxy)methyl)tetrahydrofuran-2-yl)-3-carbamoylpyridin-1-ium]",1.67
10,"O=C1O[C@H]([C@@H](O)COC(=O)c2cccnc2)C(O)=C1O [Compound 6, (S)-2-((R)-3,4-dihydroxy-5-oxo-2,5-dihydrofuran-2-yl)-2-hydroxyethyl nicotinate]",0.99
11,"CCCCCCCCCCCCCCCC(=O)OC[C@@H](O)[C@@H]1OC(=O)C(O)=C1OC(=O)c1cccnc1 [Compound 3, (S)-4-hydroxy-2-((R)-1-hydroxy-2-(palmitoyloxy)ethyl)-5-oxo-2,5-dihydrofuran-3-yl nicotinate]",2.77
12,"O=C1O[C@H]([C@@H](O)COC(=O)c2cccnc2)C(O)=C1O[C@H]1O[C@H](COC(=O)c2cccnc2)[C@@H](O)[C@H](O)[C@H]1O [Compound 7, (S)-2-hydroxy-2-((R)-3-hydroxy-5-oxo-4-(((2R,3R,4S,5S,6R)-3,4,5-trihydroxy-6-((nicotinoyloxy)methyl)tetrahydro-2H-pyran-2-yl)oxy)-2,5-dihydrofuran-2-yl)ethyl nicotinate]",1.5
13,"CC(C)(COC(=O)c1cccnc1)C(OC(=O)c1cccnc1)C(=O)NCCCOC(=O)c1cccnc1 (stereo not drawn) [Compound 11, 2,2-dimethyl-4-((3-(nicotinoyloxy)propyl)amino)-4-oxobutane-1,3-diyl dinicotinate]",2.7
14,"CCCCCCCCCCCCCCCC(=O)OC[C@@H](O)[C@@H]1OC(=O)C(OC(=O)c2cccnc2)=C1O [Compound 2, (S)-4-hydroxy-5-((R)-1-hydroxy-2-(palmitoyloxy)ethyl)-2-oxo-2,5-dihydrofuran-3-yl nicotinate]",2.53
15,"O=C1O[C@H]([C@@H](O)COC(=O)c2cccnc2)C(O)=C1O[C@H]1O[C@H](CO)[C@@H](O)[C@H](O)[C@H]1O [Compound 8, (S)-2-hydroxy-2-((R)-3-hydroxy-5-oxo-4-(((2R,3R,4S,5S,6R)-3,4,5-trihydroxy-6-(hydroxymethyl)tetrahydro-2H-pyran-2-yl)oxy)-2,5-dihydrofuran-2-yl)ethyl nicotinate]",1.5
